# US20180193490A1, “Beta Amyloid Staging” (GE HEALTHCARE LIMITED, priority 2015, published 2018)
# Biological target: T1, beta amyloid (Aβ) plaques in the brain (Homo sapiens, UniProt P05067)
# T1 construct: from tissue; host or cells: brain of living subjects (cortex and striatum), in vivo PET
# Test: GE067-026 blinded image evaluation (BIE) of amyloid PET images, separate cortical and striatal assessment
# Type: in vivo
# Details: for Subjects classified C+S+ by BIE assessment / Subjects classified C+S− by BIE assessment / Subjects classified C−S+ by BIE assessment / Subjects classified C−S− by BIE assessment: GE067-026 data set, N = 106; for BIE assessments C+S+ against striatal plaque count by histopathology / BIE assessments C+S− against striatal plaque count by histopathology / BIE assessments C−S− against striatal plaque count by histopathology: N = 108 subjects and 5 readers
# Source text: The data presented explore the use of separate cortical and striatal assessments to aid the Thal (amyloid) phase assignation to in life subjects. The data sets used are from a Flutemetamol (18F) Injection Phase III clinical trial. In this trial PET image assessment was compared to histopathological assessment of amyloid pathology from autopsy. The available data for a preliminary analysis of amyloidosis staging using separate cortical and striatal assessments comes from two sources: • (1) The blinded image evaluations (BIEs) from the GE067-026 clinical trial (NCT02090855) • (2) Provisional SUVR determinations in post-hoc analyses of the GE067-026 data During the BIEs for the above trial, 5 independent readers assessed each of 106 amyloid PET images as abnormal or normal. These dichotomous assessments formed the primary analysis for the trial. However, the individual cortical and striatal assessments were recorded and were re-analysed to estimate the cortical and striatal status separately. For each subject, each of the five readers rated 4 cortical regions and 1 striatal region as Aβ positive or Aβ negative.^1 ^1 All regions assessed are bilateral. Readers assessed images bilaterally—left and right hemispheres—but recoded only one result for each of the 5 bilateral regions. Applying the same general principle that if any of the 4 cortical regions are positive this confers cortical positivity, separate cortical and striatal assessments were determined for each case.
# T1 sequence (P05067 672-713 limits assumed): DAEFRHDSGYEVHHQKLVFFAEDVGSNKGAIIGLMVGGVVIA
smiles,measurement,setting,value
CNc1ccc(-c2nc3ccc(O)cc3s2)cc1F [Flutemetamol],Share of C+S− cases that were phase 3,BIE majority assessment,75%
same,Cases identified as C+S− by Majority assessment,"BIE majority, all Thal phases",6
same,Subjects classified C+S+ by BIE assessment,Reader A,73
same,Subjects classified C+S− by BIE assessment,Reader A,5
same,Subjects classified C−S+ by BIE assessment,Reader A,1
same,Subjects classified C−S− by BIE assessment,Reader A,28
same,Subjects classified C+S+ by BIE assessment,Reader B,68
same,Subjects classified C+S− by BIE assessment,Reader B,4
same,Subjects classified C−S+ by BIE assessment,Reader B,0
same,Subjects classified C−S− by BIE assessment,Reader B,35
same,Subjects classified C+S+ by BIE assessment,Reader C,64
same,Subjects classified C+S− by BIE assessment,Reader C,6
same,Subjects classified C−S+ by BIE assessment,Reader C,0
same,Subjects classified C−S− by BIE assessment,Reader C,37
same,Subjects classified C+S+ by BIE assessment,Reader D,35
same,Subjects classified C+S− by BIE assessment,Reader D,38
same,Subjects classified C−S+ by BIE assessment,Reader D,0
same,Subjects classified C−S− by BIE assessment,Reader D,34
same,Subjects classified C+S+ by BIE assessment,Reader E,70
same,Subjects classified C+S− by BIE assessment,Reader E,5
same,Subjects classified C−S+ by BIE assessment,Reader E,2
same,Subjects classified C−S− by BIE assessment,Reader E,30
same,BIE assessments C+S+ against striatal plaque count by histopathology,STR Plaques Frequent,289
same,BIE assessments C+S− against striatal plaque count by histopathology,STR Plaques Frequent,37
same,BIE assessments C−S− against striatal plaque count by histopathology,STR Plaques Frequent,23
same,BIE assessments C+S+ against striatal plaque count by histopathology,STR Plaques Moderate,18
same,BIE assessments C+S− against striatal plaque count by histopathology,STR Plaques Moderate,17
same,BIE assessments C−S− against striatal plaque count by histopathology,STR Plaques Moderate,24
same,BIE assessments C+S+ against striatal plaque count by histopathology,STR Plaques None,0
same,BIE assessments C+S− against striatal plaque count by histopathology,STR Plaques None,1
same,BIE assessments C−S− against striatal plaque count by histopathology,STR Plaques None,98
same,BIE assessments C+S+ against striatal plaque count by histopathology,STR Plaques Sparse,0
same,BIE assessments C+S− against striatal plaque count by histopathology,STR Plaques Sparse,1
same,BIE assessments C−S− against striatal plaque count by histopathology,STR Plaques Sparse,19
same,Cases categorised C+S+ by BIE majority,Thal (amyloid) Phase 0,0
same,Cases categorised C+S− by BIE majority,Thal (amyloid) Phase 0,0
same,Cases categorised C−S+ by BIE majority,Thal (amyloid) Phase 0,0
same,Cases categorised C−S− by BIE majority,Thal (amyloid) Phase 0,7
same,Cases categorised C+S+ by BIE majority,Thal (amyloid) Phase 1,0
same,Cases categorised C+S− by BIE majority,Thal (amyloid) Phase 1,0
same,Cases categorised C−S+ by BIE majority,Thal (amyloid) Phase 1,0
same,Cases categorised C−S− by BIE majority,Thal (amyloid) Phase 1,10
same,Cases categorised C+S+ by BIE majority,Thal (amyloid) Phase 2,0
same,Cases categorised C+S− by BIE majority,Thal (amyloid) Phase 2,0
same,Cases categorised C−S+ by BIE majority,Thal (amyloid) Phase 2,0
same,Cases categorised C−S− by BIE majority,Thal (amyloid) Phase 2,5
same,Cases categorised C+S+ by BIE majority,Thal (amyloid) Phase 3,3
same,Cases categorised C+S− by BIE majority,Thal (amyloid) Phase 3,4
same,Cases categorised C−S+ by BIE majority,Thal (amyloid) Phase 3,0
same,Cases categorised C−S− by BIE majority,Thal (amyloid) Phase 3,7
same,Cases categorised C+S+ by BIE majority,Thal (amyloid) Phase 4,17
same,Cases categorised C+S− by BIE majority,Thal (amyloid) Phase 4,2
same,Cases categorised C−S+ by BIE majority,Thal (amyloid) Phase 4,0
same,Cases categorised C−S− by BIE majority,Thal (amyloid) Phase 4,5
same,Cases categorised C+S+ by BIE majority,Thal (amyloid) Phase 5,46
same,Cases categorised C+S− by BIE majority,Thal (amyloid) Phase 5,0
same,Cases categorised C−S+ by BIE majority,Thal (amyloid) Phase 5,0
same,Cases categorised C−S− by BIE majority,Thal (amyloid) Phase 5,0
